Patent publication US20110098325A1, “PYRIDINE BENZAMIDES AND PYRAZINE BENZAMIDES USED AS PKD INHIBITORS” (CANCER RESEARCH TECHNOLOGY LIMITED, priority 2006, published 2011)

Each compound was assayed against T1, Murine PKD1 kinase domain (Mus musculus, UniProt Q62101) (assay: PKD1 (Murine Kinase Domain) Enzyme Activity Assay (IMAP fluorescence polarisation)). Details: 10 μM ATP, 60 minutes, room temperature.
T1 construct: hexahistidine (pFastBac HTb leader) (N); made in house; host or cells: Sf9 insect cells, baculovirus (Bac-to-Bac HT, pFastBac HTb)
T1 sequence (Q62101 with tags, fused parts or gaps R683W): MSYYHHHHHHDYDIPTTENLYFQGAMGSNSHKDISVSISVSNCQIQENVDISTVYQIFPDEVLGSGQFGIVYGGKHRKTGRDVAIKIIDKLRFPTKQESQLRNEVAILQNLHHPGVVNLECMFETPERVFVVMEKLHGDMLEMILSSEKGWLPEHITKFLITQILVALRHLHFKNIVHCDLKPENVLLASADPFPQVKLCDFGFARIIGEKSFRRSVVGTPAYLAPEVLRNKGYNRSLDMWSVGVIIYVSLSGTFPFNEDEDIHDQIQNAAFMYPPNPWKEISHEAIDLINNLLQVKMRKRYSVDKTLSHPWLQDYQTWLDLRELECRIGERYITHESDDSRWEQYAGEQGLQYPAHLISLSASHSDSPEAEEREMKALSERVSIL
Assay type: biochemical

| Compound | IC50 |
| --- | --- |
| CN(C)CCCNC(=O)c1cccc(-c2cncc(-c3ccc(O)cc3)n2)c1 [X-004, N-(3-Dimethylamino-propyl)-3-[6-(4-hydroxy-phenyl)-pyrazin-2-yl]-benzamide] | < 1 µM |
| COc1ncc(-c2cc(-c3cccc(C(=O)NCCN(C)C)c3)cnc2N)c(OC)n1 [Y-029, 3-[6-Amino-5-(2,4-dimethoxy-pyrimidin-5-yl)-pyridin-3-yl]-N-(2-dimethylamino-ethyl)-benzamide] | < 1 µM |
| CN(C)CCNC(=O)c1cccc(-c2cnc(N)c(-c3ccc(F)cc3)c2)c1 [Y-058, 3-[6-Amino-5-(4-fluoro-phenyl)-pyridin-3-yl]-N-(2-dimethylamino-ethyl)-benzamide] | < 1 µM |
| COc1cc(-c2cc(-c3cccc(C(N)=O)c3)cnc2N)ccc1O [Y-001, 3-[6-Amino-5-(4-hydroxy-3-methoxy-phenyl)-pyridin-3-yl]-benzamide] | < 1 µM |
| CN(C)CCNC(=O)c1cccc(-c2cnc(N)c(-c3ccc(OC4CCCCO4)cc3)c2)c1 (centres unmarked) [Y-065, 3-{6-Amino-5-[4-(tetrahydro-pyran-2-yloxy)-phenyl]-pyridin-3-yl}-N-(2-dimethylamino-ethyl)-benzamide] | < 1 µM |
| CN(C)CCNC(=O)c1cccc(-c2cnc(N)c(-c3cccc4cccnc34)c2)c1 [Y-023, 3-(6-Amino-5-quinolin-8-yl-pyridin-3-yl)-N-(2-dimethylamino-ethyl)-benzamide] | < 1 µM |
| CN(C)CCNC(=O)c1cccc(-c2cnc(N)c(-c3ccc(-c4ccccc4)cc3F)c2)c1 [Y-045, 3-[6-Amino-5-(3-fluoro-biphenyl-4-yl)-pyridin-3-yl]-N-(2-dimethylamino-ethyl)-benzamide] | < 1 µM |
| CN(C)CCNC(=O)c1cccc(-c2cnc(N)c(-c3cccc(OC(F)(F)F)c3)c2)c1 [Y-050, 3-[6-Amino-5-(3-trifluoromethoxy-phenyl)-pyridin-3-yl]-N-(2-dimethylamino-ethyl)-benzamide] | < 1 µM |
| CN(C)CCNC(=O)c1cccc(-c2cnc(N)c(-c3cc4ccccc4s3)c2)c1 [Y-011, 3-(6-Amino-5-benzo[b]thiophen-2-yl-pyridin-3-yl)-N-(2-dimethylamino-ethyl)-benzamide] | < 1 µM |
| CN(C)CCNC(=O)c1cccc(-c2cnc(N)c(-c3cccc(CC#N)c3)c2)c1 [Y-080, 3-[6-Amino-5-(3-cyanomethyl-phenyl)-pyridin-3-yl]-N-(2-dimethylamino-ethyl)-benzamide] | < 1 µM |
| CN(C)CCNC(=O)c1cccc(-c2cnc(N)c(-c3ccc(C(=O)c4ccccc4)cc3)c2)c1 [Y-070, 3-[6-Amino-5-(4-benzoyl-phenyl)-pyridin-3-yl]-N-(2-dimethylamino-ethyl)-benzamide] | < 1 µM |
| CN(C)CCNC(=O)c1cccc(-c2cnc(N)c(-c3cccc(Cl)c3)c2)c1 [Y-040, 3-[6-Amino-5-(3-chloro-phenyl)-pyridin-3-yl]-N-(2-dimethylamino-ethyl)-benzamide] | < 1 µM |
| CN(C)CCNC(=O)c1cccc(-c2cnc(N)c(-c3cc4ccccc4o3)c2)c1 [Y-012, 3-(6-Amino-5-benzofuran-2-yl-pyridin-3-yl)-N-(2-dimethylamino-ethyl)-benzamide] | < 1 µM |
| COc1cccc(-c2cc(-c3cccc(C(=O)NCCN(C)C)c3)cnc2N)n1 [Y-083, 3-(2′-Amino-6-methoxy-[2,3′]bipyridinyl-5′-yl)-N-(2-dimethylamino-ethyl)-benzamide] | < 1 µM |
| CN(C)CCNC(=O)c1cccc(-c2cnc(N)c(-c3cccc4cnccc34)c2)c1 [Y-018, 3-(6-Amino-5-isoquinolin-5-yl-pyridin-3-yl)-N-(2-dimethylamino-ethyl)-benzamide] | 1 to 10 µM |
| CN(C)CCNC(=O)c1cccc(-c2cnc(N)c(-c3cccc4c3oc3ccccc34)n2)c1 [X-012, 3-(5-Amino-6-dibenzofuran-4-yl-pyrazin-2-yl)-N-(2-dimethylamino-ethyl)-benzamide] | < 1 µM |
| CN(C)CCNC(=O)c1cccc(-c2cnc(N)c(-c3ccc(Cl)nc3)c2)c1 [Y-006, 3-(2-Amino-6′-chloro-[3,3′]bipyridinyl-5-yl)-N-(2-dimethylamino-ethyl)-benzamide] | 1 to 10 µM |
